Several values for one entry are separate records, joined by “and”; a condition that tells them apart may be missing. Equal values may be shown once.
Test system: Swiss mice, Sarcoma 180 sc, mean tumor weight T/C
Test: NCI In Vivo Anticancer Drug Screen. Data for tumor model Sarcoma 180 (subcutaneous) in Swiss mice
Conditions: endpoint: mean tumor weight, higher = larger tumour
Description: The antitumor activity of compounds was measured in mice bearing transplantable tumors. Survival or tumor size were measured and the results are expressed as the measurement made in the treated group (T) divided by the measurement made in the vehicle treated control group (C). The tumor model used in this assay is Sarcoma 180 (subcutaneous) in Swiss mice

[1] = dose: 33.0 mg/kg/injection, schedule: Q01DX007 (ip), vehicle: other

C=CCCCCCCCCC(=O)O
T/C (dose: 7.8 mg/kg/injection, schedule: Q01DX007 (ip), vehicle: saline): 109 % of control | T/C (dose: 15.6 mg/kg/injection, schedule: Q01DX007 (ip), vehicle: saline): 118 % of control | T/C (dose: 31.3 mg/kg/injection, schedule: Q01DX007 (ip), vehicle: saline): 122 % of control | T/C (dose: 125.0 mg/kg/injection, schedule: Q01DX007 (ip), vehicle: saline): 90 % of control

O=C1CN(/N=C\c2ccc([N+](=O)[O-])o2)C(=O)N1
T/C (dose: 6.25 mg/kg/injection, schedule: Q#A X014 (ip), vehicle: carboxymethylcellulose (CMC)): 91 % of control | T/C (dose: 12.5 mg/kg/injection, schedule: Q#A X014 (ip), vehicle: carboxymethylcellulose (CMC)): 94 % of control | T/C (dose: 15.5 mg/kg/injection, schedule: Q01DX007 (ip), vehicle: carboxymethylcellulose (CMC)): 106 % of control | T/C (dose: 21.0 mg/kg/injection, schedule: Q01DX007 (ip), vehicle: carboxymethylcellulose (CMC)): 92 % of control | T/C (dose: 25.0 mg/kg/injection, schedule: Q#A X014 (ip), vehicle: carboxymethylcellulose (CMC)): 97 % of control | T/C (dose: 42.0 mg/kg/injection, schedule: Q01DX007 (ip), vehicle: carboxymethylcellulose (CMC)): 88 % of control | T/C (dose: 50.0 mg/kg/injection, schedule: Q#A X014 (ip), vehicle: carboxymethylcellulose (CMC)): 27 % of control | T/C (dose: 84.0 mg/kg/injection, schedule: Q01DX007 (ip), vehicle: carboxymethylcellulose (CMC)): 103 % of control

CCCCSc1nc(N)nc2nc[nH]c12
T/C (dose: 18.75 mg/kg/injection, schedule: Q#A X014 (ip), vehicle: methylcellulose (MC)): 89 % of control | T/C (dose: 37.5 mg/kg/injection, schedule: Q#A X014 (ip), vehicle: methylcellulose (MC)): 78 % of control | T/C (dose: 75.0 mg/kg/injection, schedule: Q#A X014 (ip), vehicle: methylcellulose (MC)): 102 % of control | T/C (dose: 150.0 mg/kg/injection, schedule: Q#A X014 (ip), vehicle: methylcellulose (MC)): 59 % of control

NC(Cc1cccs1)C(=O)O (stereo unspecified)
T/C (dose: 175.0 mg/kg/injection, schedule: Q01DX007 (ip), vehicle: carboxymethylcellulose (CMC)): 95 % of control | T/C (dose: 250.0 mg/kg/injection, schedule: Q01DX007 (ip), vehicle: carboxymethylcellulose (CMC)): 81 % of control | T/C (dose: 1000.0 mg/kg/injection, schedule: Q01DX007 (ip), vehicle: carboxymethylcellulose (CMC)): 108 % of control

CC(=O)Nc1c(Cl)c(Cl)c2c(c1Cl)Cc1cc(Cl)c(Cl)cc1-2
T/C (dose: 3.1 mg/kg/injection, schedule: Q01DX007 (ip), vehicle: carboxymethylcellulose (CMC)): 35 % of control | T/C (dose: 6.2 mg/kg/injection, schedule: Q01DX007 (ip), vehicle: carboxymethylcellulose (CMC)): 52 % of control | T/C (dose: 12.5 mg/kg/injection, schedule: Q01DX007 (ip), vehicle: carboxymethylcellulose (CMC)): 48 % of control and 54 % of control | T/C (dose: 21.0 mg/kg/injection, schedule: Q01DX007 (ip), vehicle: other): 63 % of control | T/C (dose: 32.0 mg/kg/injection, schedule: Q01DX007 (ip), vehicle: other): 39 % of control | T/C [1]: 49 % of control | T/C (dose: 48.0 mg/kg/injection, schedule: Q01DX007 (ip), vehicle: other): 77 % of control | T/C (dose: 49.0 mg/kg/injection, schedule: Q01DX007 (ip), vehicle: other): 40 % of control | T/C (dose: 73.0 mg/kg/injection, schedule: Q01DX007 (ip), vehicle: other): 31 % of control | T/C (dose: 250.0 mg/kg/injection, schedule: Q01DX007 (ip), vehicle: other): 21 % of control and 43 % of control

CC(=O)OCC1OC(n2cnc3c(=S)nc(N)[nH]c32)C(OC(C)=O)C1OC(C)=O (stereo unspecified)
T/C (dose: 3.0 mg/kg/injection, schedule: Q01DX007 (ip), vehicle: other): 12 % of control | T/C (dose: 3.0 mg/kg/injection, schedule: Q01DX007 (ip), vehicle: saline): 64 % of control | T/C (dose: 4.4 mg/kg/injection, schedule: Q01DX007 (ip), vehicle: other): 6 % of control | T/C (dose: 6.6 mg/kg/injection, schedule: Q01DX007 (ip), vehicle: carboxymethylcellulose (CMC)): 43 % of control | T/C (dose: 6.6 mg/kg/injection, schedule: Q01DX007 (ip), vehicle: other): 18 % of control and 29 % of control | T/C (dose: 10.0 mg/kg/injection, schedule: Q01DX007 (ip), vehicle: carboxymethylcellulose (CMC)): 28 % of control | T/C (dose: 10.0 mg/kg/injection, schedule: Q01DX007 (ip), vehicle: other): 51 % of control | T/C (dose: 15.0 mg/kg/injection, schedule: Q01DX007 (ip), vehicle: carboxymethylcellulose (CMC)): 9 % of control | T/C (dose: 15.0 mg/kg/injection, schedule: Q01DX007 (ip), vehicle: other): 6 % of control and 24 % of control | T/C (dose: 22.0 mg/kg/injection, schedule: Q01DX007 (ip), vehicle: carboxymethylcellulose (CMC)): 9 % of control | T/C (dose: 22.0 mg/kg/injection, schedule: Q01DX007 (ip), vehicle: other): 3 % of control and 10 % of control | T/C [1]: 11 % of control

— PubChem BioAssay AID342 (DTP/NCI, 2004)
